The assay is described as follows: Inhibition of TEAD in human tumour cells assessed as YAP1/TAZ-TEAD modulation incubated for 48 hrs by Bright-Glo luciferase assay. It is filed as cell-based. The note with it: Tumor Cell line.
For `C=CC(=O)Nc1ccc2c(c1)c(C)cn2-c1ccc(C(F)(F)F)cc1`, the IC50 (in general, the concentration that gives 50% inhibition) is 9 nM. Next, `C=CC(=O)Nc1ccc2c(c1)c(COC)cn2-c1ccc(C(F)(F)F)cc1`: 15 nM; `C=CC(=O)Nc1ccc2c(ccn2-c2ccc(C(F)(F)F)cc2)c1`: 8 nM; `C=CC(=O)Nc1ccc2c(ccn2Cc2ccc(-c3cccc(C(F)(F)F)c3)cc2)c1`: 20 nM. Next, `C=CC(=O)Nc1cc2ccn(Cc3cccc(C(F)(F)F)c3)c2cc1F`: 18 nM.

On to `C=CC(=O)Nc1ccc2c(c1)cc(C)n2-c1ccc(C(F)(F)F)cc1`, for which the half-inhibitory concentration (IC50) is 12 nM.
